ChEMBL document CHEMBL1201862, “PubChem BioAssay data set” (2004)
Calls of active or inactive are those of the source.

What was measured:
[1] = target: Sphingosine 1-phosphate receptor 2 (Homo sapiens, UniProt O95136); assay: Dose Response Cell Based Assay for Agonists of the S1P2 Receptor of Purchased Analogues. [Related pubchem assays: 729, 843, 854, 736 ]; format: functional
NADPH oxidase 1 = NADPH oxidase 1 (Homo sapiens, UniProt Q9Y5S8); assay: Luminescence-based cell-based dose response assay to identify inhibitors of NADPH oxidase 1 (NOX1).; format: functional
Sequence of NADPH oxidase 1 (Q9Y5S8 whole entry): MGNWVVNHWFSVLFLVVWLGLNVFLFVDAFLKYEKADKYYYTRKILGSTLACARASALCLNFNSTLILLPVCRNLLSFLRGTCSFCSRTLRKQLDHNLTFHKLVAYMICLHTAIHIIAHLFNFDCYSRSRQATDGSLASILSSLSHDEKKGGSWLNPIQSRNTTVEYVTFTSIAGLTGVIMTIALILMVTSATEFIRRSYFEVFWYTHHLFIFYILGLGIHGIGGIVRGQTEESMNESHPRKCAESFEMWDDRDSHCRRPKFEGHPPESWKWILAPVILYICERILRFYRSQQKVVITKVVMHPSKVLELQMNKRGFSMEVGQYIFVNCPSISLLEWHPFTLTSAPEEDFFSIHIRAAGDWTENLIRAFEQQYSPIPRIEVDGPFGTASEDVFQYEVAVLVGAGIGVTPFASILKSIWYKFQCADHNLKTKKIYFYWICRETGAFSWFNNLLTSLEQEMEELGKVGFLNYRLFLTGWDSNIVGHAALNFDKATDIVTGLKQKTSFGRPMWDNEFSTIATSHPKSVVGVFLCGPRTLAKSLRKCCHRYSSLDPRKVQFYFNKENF

[2] = cytotoxicity in KRAS-transformed pancreatic duct cells, primary screen, cell-based, fluorescence, HTS (AID 431); format: functional; settings: Homo sapiens;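 further: cell line used: HPDE-C7K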
[3] = cytotoxicity in HPDE-C7 cells, cell-based, fluorescence, HTS (AID 430); format: functional; settings: Homo sapiens
Large T antigen = Large T antigen (Simian virus 40, UniProt P03070); format: functional, Betapolyomavirus macacae;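 further: Confirmatory-stage PubChem screen for compounds that inhibit SV40 T antigen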
Sequence of Large T antigen (P03070 whole entry): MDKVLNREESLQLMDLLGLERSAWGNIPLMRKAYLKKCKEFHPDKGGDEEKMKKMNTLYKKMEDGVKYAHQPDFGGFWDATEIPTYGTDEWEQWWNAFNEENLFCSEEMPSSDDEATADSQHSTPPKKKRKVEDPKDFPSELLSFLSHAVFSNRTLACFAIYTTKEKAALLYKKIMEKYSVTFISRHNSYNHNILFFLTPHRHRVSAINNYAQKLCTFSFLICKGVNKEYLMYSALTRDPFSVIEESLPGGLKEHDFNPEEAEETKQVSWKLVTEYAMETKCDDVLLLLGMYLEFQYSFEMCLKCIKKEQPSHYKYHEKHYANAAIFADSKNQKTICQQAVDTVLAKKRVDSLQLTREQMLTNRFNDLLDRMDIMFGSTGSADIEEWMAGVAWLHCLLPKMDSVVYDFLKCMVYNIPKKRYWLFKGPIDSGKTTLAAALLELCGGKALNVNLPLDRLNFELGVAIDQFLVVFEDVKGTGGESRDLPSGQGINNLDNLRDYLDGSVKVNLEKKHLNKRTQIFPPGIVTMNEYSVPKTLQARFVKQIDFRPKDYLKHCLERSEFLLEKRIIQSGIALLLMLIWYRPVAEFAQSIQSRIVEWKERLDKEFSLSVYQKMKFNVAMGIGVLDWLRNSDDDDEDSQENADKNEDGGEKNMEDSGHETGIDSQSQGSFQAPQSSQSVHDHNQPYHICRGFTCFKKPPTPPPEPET

fMet-Leu-Phe receptor = target: T1, fMet-Leu-Phe receptor (Homo sapiens, UniProt P21462); assay: FPR ligands, dose response (AID 519); format: functional
T1 sequence (P21462 whole entry): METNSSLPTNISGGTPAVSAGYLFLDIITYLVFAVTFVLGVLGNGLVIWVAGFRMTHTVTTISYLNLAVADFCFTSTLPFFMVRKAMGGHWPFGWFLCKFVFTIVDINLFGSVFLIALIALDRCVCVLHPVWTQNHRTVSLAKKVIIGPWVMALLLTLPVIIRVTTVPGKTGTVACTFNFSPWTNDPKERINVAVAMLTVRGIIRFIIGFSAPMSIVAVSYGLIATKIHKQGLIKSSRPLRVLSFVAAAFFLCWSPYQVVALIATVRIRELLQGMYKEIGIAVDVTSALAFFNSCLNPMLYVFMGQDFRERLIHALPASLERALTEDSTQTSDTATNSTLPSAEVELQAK

[4] = target: T2, Apoptotic protease-activating factor 1 (Homo sapiens, UniProt O14727); format: functional
T2 sequence (O14727 whole entry): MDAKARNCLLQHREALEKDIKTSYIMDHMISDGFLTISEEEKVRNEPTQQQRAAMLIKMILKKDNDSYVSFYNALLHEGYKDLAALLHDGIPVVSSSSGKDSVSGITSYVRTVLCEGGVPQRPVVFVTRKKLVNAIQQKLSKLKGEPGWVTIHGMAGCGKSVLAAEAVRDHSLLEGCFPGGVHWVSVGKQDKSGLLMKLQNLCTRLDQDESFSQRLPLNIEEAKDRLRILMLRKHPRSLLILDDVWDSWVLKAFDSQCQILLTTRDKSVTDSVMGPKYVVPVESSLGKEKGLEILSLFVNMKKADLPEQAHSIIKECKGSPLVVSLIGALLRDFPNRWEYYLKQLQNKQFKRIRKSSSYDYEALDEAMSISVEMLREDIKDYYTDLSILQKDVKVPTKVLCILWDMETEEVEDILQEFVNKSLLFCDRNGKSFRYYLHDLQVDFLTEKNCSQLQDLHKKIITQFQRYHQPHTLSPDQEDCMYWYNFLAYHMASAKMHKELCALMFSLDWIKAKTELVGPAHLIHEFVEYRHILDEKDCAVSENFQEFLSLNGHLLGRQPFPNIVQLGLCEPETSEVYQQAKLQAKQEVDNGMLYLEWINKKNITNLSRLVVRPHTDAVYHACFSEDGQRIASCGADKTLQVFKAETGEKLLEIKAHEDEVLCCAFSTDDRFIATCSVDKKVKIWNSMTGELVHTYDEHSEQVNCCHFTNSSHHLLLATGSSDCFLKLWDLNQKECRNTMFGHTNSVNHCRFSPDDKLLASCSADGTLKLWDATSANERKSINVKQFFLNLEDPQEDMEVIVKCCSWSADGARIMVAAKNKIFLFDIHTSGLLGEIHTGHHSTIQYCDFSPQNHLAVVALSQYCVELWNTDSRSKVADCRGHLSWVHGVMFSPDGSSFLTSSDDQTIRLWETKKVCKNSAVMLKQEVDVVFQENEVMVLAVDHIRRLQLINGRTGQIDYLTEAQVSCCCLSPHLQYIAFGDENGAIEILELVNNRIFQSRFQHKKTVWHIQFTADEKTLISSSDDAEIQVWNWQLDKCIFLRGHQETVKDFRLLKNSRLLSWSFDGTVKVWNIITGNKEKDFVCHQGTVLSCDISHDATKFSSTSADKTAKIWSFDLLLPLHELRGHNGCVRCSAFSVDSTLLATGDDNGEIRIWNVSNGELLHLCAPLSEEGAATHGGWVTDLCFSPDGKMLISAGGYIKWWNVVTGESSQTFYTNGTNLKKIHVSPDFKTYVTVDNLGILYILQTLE

Bcl-2-like protein 10 = Bcl-2-like protein 10 (Homo sapiens, UniProt Q9HD36); assay: displacers of TR3 peptide from Bcl-B, primary screen, selectivity assay for Bfl-1 inhibitor project, biochemical, fluorescence polarization, FITC-TR3 peptide (AID 748);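 further: fluorescence polarization from a fluorescein-labelled TR3 peptide binding purified Bcl-B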
Sequence of Bcl-2-like protein 10 (Q9HD36 whole entry): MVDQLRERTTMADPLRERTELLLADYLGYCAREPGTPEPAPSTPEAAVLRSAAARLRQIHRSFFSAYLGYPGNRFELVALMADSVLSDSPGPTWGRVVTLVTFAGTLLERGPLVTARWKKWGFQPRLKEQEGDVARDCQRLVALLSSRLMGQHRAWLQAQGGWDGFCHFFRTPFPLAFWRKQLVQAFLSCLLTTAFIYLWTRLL

Nonstructural protein 1 = Nonstructural protein 1 (Influenza A virus, UniProt Q194T2); format: functional, Influenza A virus (A/California/07/2009(H1N1))
Sequence of Nonstructural protein 1 (Q194T2 whole entry): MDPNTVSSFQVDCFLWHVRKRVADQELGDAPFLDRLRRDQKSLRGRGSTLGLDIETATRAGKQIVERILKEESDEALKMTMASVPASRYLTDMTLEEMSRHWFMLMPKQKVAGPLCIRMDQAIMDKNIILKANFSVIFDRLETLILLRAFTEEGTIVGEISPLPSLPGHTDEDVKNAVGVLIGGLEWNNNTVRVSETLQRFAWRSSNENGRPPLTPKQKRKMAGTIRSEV

Estrogen receptor beta = Estrogen receptor beta (Homo sapiens, UniProt Q92731); assay: ERβ–SRC-3 coactivator interaction inhibitors, confirmation, orthogonal assay, biochemical, ELISA, streptavidin-HRP readout (AID 1060)
Sequence of Estrogen receptor beta (Q92731 whole entry): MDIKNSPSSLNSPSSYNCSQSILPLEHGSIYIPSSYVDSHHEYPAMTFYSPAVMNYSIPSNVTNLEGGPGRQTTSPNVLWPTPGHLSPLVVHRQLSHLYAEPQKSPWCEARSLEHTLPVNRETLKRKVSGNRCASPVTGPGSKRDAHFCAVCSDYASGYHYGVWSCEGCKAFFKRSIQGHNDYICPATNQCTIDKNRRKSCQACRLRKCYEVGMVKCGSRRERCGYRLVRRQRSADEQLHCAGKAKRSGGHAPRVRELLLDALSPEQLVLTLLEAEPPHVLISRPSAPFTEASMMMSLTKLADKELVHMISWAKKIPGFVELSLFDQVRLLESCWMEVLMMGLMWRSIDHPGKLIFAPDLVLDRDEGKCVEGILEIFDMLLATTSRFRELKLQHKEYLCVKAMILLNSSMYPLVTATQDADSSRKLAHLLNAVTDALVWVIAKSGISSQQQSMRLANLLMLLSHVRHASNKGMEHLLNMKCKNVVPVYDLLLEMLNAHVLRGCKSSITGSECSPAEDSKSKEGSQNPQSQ

[5] = target: Sphingosine 1-phosphate receptor 4 (Homo sapiens, UniProt O95977); assay: Fluorescence dose response cell-based high throughput screening assay for antagonists of the Sphingosine 1-Phosphate Receptor 4 (S1P4). [Related pubchem assays: 1524 (Confirmation in triplicates.), 1510 (Primary screen.)]; format: functional
Sequence of Sphingosine 1-phosphate receptor 4 (O95977 whole entry): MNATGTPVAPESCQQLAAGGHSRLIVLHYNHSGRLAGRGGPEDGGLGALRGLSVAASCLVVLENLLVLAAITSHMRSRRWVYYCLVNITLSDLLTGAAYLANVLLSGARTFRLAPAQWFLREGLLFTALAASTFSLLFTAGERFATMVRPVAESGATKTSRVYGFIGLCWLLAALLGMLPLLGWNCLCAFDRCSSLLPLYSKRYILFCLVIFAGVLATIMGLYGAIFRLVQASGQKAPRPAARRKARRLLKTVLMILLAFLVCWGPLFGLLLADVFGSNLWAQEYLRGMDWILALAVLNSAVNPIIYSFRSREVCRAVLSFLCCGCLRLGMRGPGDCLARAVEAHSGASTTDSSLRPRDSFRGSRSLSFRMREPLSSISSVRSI

[6] = target: Peroxisome proliferator-activated receptor gamma/Nuclear receptor coactivator 2 (Homo sapiens, UniProt P37231); assay: TR-FRET dose response biochemical High Throughput Screening assay for agonists of the steroid receptor coactivator 2 (SRC-2) recruitment by the peroxisome proliferator-activated receptor gamma (PPAR gamma): non-selective agonists. [Related pubchem assays: 1297, 1032 ]; format: functional
[7] = target: T3, Kappa-type opioid receptor (Homo sapiens, UniProt P41145); format: functional
T3 sequence (P41145 whole entry): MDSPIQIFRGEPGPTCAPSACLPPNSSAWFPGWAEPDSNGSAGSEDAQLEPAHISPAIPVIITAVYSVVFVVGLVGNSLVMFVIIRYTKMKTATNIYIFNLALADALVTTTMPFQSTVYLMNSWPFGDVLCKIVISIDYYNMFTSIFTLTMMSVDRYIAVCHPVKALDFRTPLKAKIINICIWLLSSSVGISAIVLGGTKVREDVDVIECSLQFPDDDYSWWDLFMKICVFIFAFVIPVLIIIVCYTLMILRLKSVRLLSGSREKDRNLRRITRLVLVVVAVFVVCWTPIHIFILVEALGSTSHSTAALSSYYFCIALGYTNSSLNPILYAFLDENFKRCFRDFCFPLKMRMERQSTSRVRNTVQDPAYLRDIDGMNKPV

[8] = inhibitors of SNCA 5'UTR-driven reporter translation, confirmation, H4 neuroglioma cells, luminescence (AID 1988); format: functional, cell-based
[9] = inhibitors of firefly luciferase expression or activity, dose response, H4 neuroglioma cells, luminescence (AID 1990); format: functional, cell-based
[10] = target: T3, Kappa-type opioid receptor; format: functional; remark: listed apart in the source
[11] = target: Peroxisome proliferator-activated receptor gamma/Nuclear receptor coactivator 3 (Homo sapiens, UniProt P37231); assay: TR-FRET dose response biochemical High Throughput Screening assay for agonists of the steroid receptor coactivator 3 (SRC-3) recruitment by the peroxisome proliferator-activated receptor gamma (PPAR gamma): non-selective agonists. [Related pubchem assays: 1301 (Confirmation screen.), 1048 (Primary screen.)]; format: functional
[12] = target: G-protein coupled receptor 55 (Homo sapiens, UniProt Q9Y2T6); assay: GPR55 antagonists blocking LPI-driven arrestin recruitment, primary screen, imaging, U2OS, beta-arrestin-GFP, LPI agonist (AID 2013); format: functional;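 further: antagonist potency measured as reduced agonist-driven arrestin aggregation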
Sequence of G-protein coupled receptor 55 (Q9Y2T6 whole entry): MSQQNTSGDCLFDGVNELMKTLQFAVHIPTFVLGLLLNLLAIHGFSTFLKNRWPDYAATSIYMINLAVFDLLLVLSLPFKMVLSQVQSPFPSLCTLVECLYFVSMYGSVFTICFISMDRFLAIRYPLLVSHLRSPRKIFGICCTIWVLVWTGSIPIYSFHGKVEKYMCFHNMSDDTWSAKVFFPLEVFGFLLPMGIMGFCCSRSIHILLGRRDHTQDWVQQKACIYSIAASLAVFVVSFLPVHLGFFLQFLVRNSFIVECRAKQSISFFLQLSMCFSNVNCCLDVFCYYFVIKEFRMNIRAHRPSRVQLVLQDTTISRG

Beta-galactosidase = Beta-galactosidase (Escherichia coli, UniProt Q8VNN2); format: functional
[13] = target: T4, Replicative DNA helicase DnaB (Mycobacterium tuberculosis, UniProt P9WMR3); assay: DnaB intein splicing inhibitors, dose response, biochemical, cell-free fluorescence (AID 449749); format: functional
T4 sequence (P9WMR3 whole entry): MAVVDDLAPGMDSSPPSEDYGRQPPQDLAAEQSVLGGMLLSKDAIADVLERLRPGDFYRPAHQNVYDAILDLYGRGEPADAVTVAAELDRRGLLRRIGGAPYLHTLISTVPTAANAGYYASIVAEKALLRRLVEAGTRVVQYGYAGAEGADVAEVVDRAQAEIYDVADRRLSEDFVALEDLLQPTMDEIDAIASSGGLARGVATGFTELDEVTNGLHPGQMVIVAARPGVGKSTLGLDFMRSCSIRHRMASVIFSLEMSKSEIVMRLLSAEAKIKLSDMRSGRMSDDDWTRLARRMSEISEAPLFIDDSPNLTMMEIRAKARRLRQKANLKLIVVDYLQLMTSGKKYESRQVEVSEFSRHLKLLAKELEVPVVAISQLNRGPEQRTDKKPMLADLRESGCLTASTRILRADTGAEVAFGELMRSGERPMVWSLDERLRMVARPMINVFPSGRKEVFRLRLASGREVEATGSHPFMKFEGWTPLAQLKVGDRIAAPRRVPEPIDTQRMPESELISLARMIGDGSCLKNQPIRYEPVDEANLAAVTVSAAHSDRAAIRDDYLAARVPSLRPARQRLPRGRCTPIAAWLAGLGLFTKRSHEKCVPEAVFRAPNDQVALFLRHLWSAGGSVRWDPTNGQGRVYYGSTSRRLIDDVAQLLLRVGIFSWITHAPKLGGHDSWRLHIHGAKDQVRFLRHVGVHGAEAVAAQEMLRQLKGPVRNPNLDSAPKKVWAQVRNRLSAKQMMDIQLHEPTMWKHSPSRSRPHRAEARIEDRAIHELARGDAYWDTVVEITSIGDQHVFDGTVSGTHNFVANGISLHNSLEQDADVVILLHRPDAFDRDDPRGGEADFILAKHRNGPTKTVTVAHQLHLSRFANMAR

Mu-type opioid receptor = Mu-type opioid receptor (Homo sapiens, UniProt P35372); assay: HTS Image-Based Screen for Agonists of the MOR Receptor. [Related pubchem assays (depositor defined):AID1777, AID1785, AID1786, AID2133]; format: functional;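 further: imaging of beta-arrestin GFP recruitment into spots after receptor activation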
Sequence of Mu-type opioid receptor (P35372 whole entry): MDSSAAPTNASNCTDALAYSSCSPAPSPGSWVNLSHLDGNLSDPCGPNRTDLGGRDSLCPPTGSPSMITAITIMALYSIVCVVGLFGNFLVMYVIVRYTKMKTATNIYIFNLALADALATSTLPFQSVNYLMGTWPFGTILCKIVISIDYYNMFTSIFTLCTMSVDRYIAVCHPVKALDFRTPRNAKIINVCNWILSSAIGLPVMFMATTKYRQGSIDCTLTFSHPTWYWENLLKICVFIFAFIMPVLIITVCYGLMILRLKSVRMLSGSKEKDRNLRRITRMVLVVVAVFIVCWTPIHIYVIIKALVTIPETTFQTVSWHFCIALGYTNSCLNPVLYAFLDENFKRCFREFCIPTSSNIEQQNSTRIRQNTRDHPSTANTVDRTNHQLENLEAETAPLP

[14] = target: T5, Delta-type opioid receptor (Homo sapiens, UniProt P41143); assay: HTS Image-Based Screen for Agonists of the DOR Receptor. [Related pubchem assays (depositor defined):AID1777, AID1786, AID2133]; format: functional
T5 sequence (P41143 whole entry): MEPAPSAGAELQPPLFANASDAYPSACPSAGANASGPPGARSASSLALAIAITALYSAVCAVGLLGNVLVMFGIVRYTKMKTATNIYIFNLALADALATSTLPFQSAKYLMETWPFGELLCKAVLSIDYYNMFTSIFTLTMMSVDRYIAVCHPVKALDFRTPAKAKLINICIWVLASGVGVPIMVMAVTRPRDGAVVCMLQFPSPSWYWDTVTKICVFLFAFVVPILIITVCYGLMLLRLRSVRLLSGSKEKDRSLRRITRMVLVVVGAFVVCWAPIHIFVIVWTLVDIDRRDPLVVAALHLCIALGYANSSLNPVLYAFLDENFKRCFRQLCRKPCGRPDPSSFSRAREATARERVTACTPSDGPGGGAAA

[15] = target: Peroxisome proliferator-activated receptor gamma/Nuclear receptor coactivator 1 (Homo sapiens, UniProt P37231); assay: TR-FRET dose response biochemical High Throughput Screening assay for agonists of the steroid receptor coactivator 1 (SRC-1) recruitment by the peroxisome proliferator-activated receptor gamma (PPAR gamma): non-selective agonists. [Related pubchem assays (depositor defined):AID1300, AID1808, AID504735, AID631]; format: protein assay
[16] = Vero cell cytotoxicity, dose response, cytotoxicity control for Vif-APOBEC3G degradation inhibitor project, Vero cells (AID 1117358); format: functional; settings: Human immunodeficiency virus 1, Vero
[17] = microbe, parasite or virus in culture; format: functional; settings: Mycobacterium tuberculosis
INS1 = assay: beta cell apoptosis inhibitors, cytokine rescue, dose response, luminescence, retest (AID 449756); format: functional, cell-based; settings: Rattus norvegicus;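 further: cell death triggered by IL-1 beta plus TNF-alpha plus IFN-gamma mixture; protective hits raise ATP signal compared with cytokine alone wells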
[18] = target: T5, Delta-type opioid receptor; assay: HTS Image-Based Screen for Antagonists of the DOR Receptor. [Related pubchem assays (depositor defined):AID1777, AID1785, AID1786, AID2133]; format: functional
[19] = target: Sphingosine 1-phosphate receptor 1 (Homo sapiens, UniProt P21453); format: functional;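 further: Tango beta-arrestin reporter U2OS cells stimulated with S1P near its EC80; inhibitor potency meaning antagonism of receptor activation by the natural agonist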
Sequence of Sphingosine 1-phosphate receptor 1 (P21453 whole entry): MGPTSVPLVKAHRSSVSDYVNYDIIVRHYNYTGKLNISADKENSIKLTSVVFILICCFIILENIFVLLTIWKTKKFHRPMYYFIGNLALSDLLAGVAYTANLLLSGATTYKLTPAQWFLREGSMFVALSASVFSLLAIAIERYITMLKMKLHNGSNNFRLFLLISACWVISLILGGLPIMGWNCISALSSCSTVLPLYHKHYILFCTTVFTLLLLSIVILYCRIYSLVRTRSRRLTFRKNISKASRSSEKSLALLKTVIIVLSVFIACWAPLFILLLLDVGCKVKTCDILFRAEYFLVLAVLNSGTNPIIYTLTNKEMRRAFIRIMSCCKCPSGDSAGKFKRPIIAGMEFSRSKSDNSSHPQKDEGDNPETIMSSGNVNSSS

Protein RecA = target: T6, Protein RecA (Mycobacterium tuberculosis, UniProt P9WHJ3); assay: Fluorescence Cell-Free Homogeneous Dose Retest to Identify Inhibitors of RecA-Intein Splicing Activity. [Related pubchem assays (depositor defined):AID2097, AID2223, AID489010, AID492950]; format: functional
T6 sequence (P9WHJ3 whole entry): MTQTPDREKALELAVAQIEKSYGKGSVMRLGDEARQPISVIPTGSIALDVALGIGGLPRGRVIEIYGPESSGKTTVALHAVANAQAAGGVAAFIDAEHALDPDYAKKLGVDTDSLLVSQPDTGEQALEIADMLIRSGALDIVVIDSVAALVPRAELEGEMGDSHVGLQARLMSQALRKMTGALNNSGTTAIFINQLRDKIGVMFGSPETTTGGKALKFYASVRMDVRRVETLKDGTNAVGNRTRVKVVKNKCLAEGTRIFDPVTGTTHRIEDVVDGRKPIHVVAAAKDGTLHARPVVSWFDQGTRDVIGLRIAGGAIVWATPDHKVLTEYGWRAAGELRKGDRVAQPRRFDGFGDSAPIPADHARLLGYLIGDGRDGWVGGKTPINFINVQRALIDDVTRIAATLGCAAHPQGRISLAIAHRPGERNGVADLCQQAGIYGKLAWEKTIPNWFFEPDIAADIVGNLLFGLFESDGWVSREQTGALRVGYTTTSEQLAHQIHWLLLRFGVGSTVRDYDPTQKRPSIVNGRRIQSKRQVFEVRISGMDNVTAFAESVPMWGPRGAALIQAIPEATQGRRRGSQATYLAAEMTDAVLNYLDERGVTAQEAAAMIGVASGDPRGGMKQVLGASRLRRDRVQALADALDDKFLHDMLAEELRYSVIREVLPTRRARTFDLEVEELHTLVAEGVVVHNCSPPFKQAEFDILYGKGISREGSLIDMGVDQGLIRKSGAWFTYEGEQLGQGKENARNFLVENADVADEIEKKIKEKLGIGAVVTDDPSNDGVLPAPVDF

[20] = Luminescence Cell-Based Dose Response HTS to Identify Inhibitors of 5'UTR Stem-Loop Driven Prion Protein mRNA Translation in H4 Neuroglioblastoma Cells. [Related pubchem assays: 1827 (Project Summary), 1813 (Primary HTS)]; format: functional

Sequence of Sphingosine 1-phosphate receptor 2 (O95136 whole entry): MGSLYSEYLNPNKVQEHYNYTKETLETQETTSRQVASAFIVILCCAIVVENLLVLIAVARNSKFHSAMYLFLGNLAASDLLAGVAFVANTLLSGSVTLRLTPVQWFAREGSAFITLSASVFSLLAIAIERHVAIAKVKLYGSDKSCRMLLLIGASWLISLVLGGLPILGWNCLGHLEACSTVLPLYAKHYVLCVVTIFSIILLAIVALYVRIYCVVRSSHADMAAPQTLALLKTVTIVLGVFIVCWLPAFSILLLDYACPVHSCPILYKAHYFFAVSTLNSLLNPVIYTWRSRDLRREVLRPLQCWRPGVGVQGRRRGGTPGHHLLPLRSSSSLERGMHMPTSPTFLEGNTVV

CCCNC(=O)CN(C)CC(=O)c1cc(C)n(Cc2ccccc2)c1C
EC50 [1]: > 30 µM (not active)

CC(=O)N(C)c1ccc(NC(=O)Nc2ccc(Cl)cc2)cc1
IC50 (NADPH oxidase 1): > 20 µM (not active)

COc1cccc(C2C=C(c3ccc(OC)cc3OC)Nc3nnnn32)c1 (stereo not given)
EC50 [2]: 8.72 µM (active) | EC50 [3]: 9.03 µM (active)

CCOC(=O)N1CCN(c2cc(NCCC(=O)O)c3c4c(onc24)-c2ccccc2C3=O)CC1
IC50 (Large T antigen): > 100 µM (active) | Ki (fMet-Leu-Phe receptor): > 66.7 µM (inactive) | IC50 [4]: 25.6 µM (active) | IC50 (Bcl-2-like protein 10): 7.52 µM (active) | IC50 (Nonstructural protein 1): 20.3 µM (active) | IC50 (Estrogen receptor beta): 5.41 µM (not active)

O=C(OCn1ncc(Br)c(Br)c1=O)c1ccc(F)cc1
IC50 [5]: 1.66 µM (active) | EC50 [6]: 72.3 µM (not active) | IC50 [7]: 6.83 µM | EC50 [8]: > 120 µM (not active) | EC50 [9]: > 120 µM (not active) | IC50 [10]: 18.8 µM (active) | EC50 [11]: > 79.4 µM (not active) | IC50 [12]: 5.05 µM (active) | EC50 (Beta-galactosidase): > 31.5 µM (inactive) | AC50 [13]: 2.02 µM (active) | EC50 (Mu-type opioid receptor): > 32 µM (inactive) | EC50 [14]: > 32 µM (inactive) | EC50 [15]: > 79.4 µM (inactive) | CC50 [16]: 8.69 µM (active) | CC50 [17]: 9.1 µM (active) | AC50 (INS1): 4.94 µM (active) | IC50 [18]: 10.3 µM (inactive) | IC50 [19]: 13.6 µM (not active) | EC50 (Protein RecA): 0.473 µM (active) | EC50 [20]: 5.79 µM (active)
